These results are taken from ChEMBL document CHEMBL5247600, “Rational design of metabolically stable HDAC inhibitors: An overhaul of trifluoromethyl ketones” (Eur J Med Chem, 2022).

Molecules are shown by their SMILES.

The test system of the assay is HCT-116. Put plainly: Anticancer activity against human HCT-116 cells assessed as cell growth inhibition incubated for 3 days by methylene blue staining based colorimetric assay. The format is functional. The settings on record: HCT-116, 72 h.
Take `O=C(CCCCCCNC(=O)C(O)(O)C(F)(F)F)Nc1nc2ccc(F)cc2s1`: the IC50 came to 6.47 µM.

With `C/C(=N\O)C(=O)NCCCCCCC(=O)Nc1ccccc1`, the half-maximal inhibitory concentration (IC50) is above 100 µM.

With `NC(=O)C(=O)NCCCCC(=O)Nc1ccccc1`, the IC50 is above 100 µM.

Consider `O=C(CCCCCCNC(=O)C(O)(O)C(F)(F)F)Nc1cccc(Br)c1`, for which the IC50 was 3.06 µM.

As for `O=C(CCCCCCCNC(=O)C(O)(O)C(F)(F)F)Nc1ccccc1`, the IC50 is 41.7 µM.

For `O=C(CCCCNC(=O)c1cc(=O)c(O)co1)Nc1ccccc1`, the IC50 is above 100 µM.

Turning to `O=C(CCCCCCNC(=O)C(O)(O)C(F)(F)F)Nc1ccc(F)cc1`, the IC50 came to 7.57 µM.

In the case of `O=C(CCCCNC(=O)C(O)(O)C(F)(F)F)Nc1ccccc1`, the IC50 came out at 20.3 µM.

On to `CC(=O)C(=O)NCCCCCCC(=O)Nc1ccccc1`, for which the IC50 is above 100 µM.

`O=C(CCCCCCNC(=O)C(O)(O)C(F)(F)F)Nc1ccncc1`: the IC50 came out at 6.67 µM.

Regarding `O=C(CCCCCCNC(=O)C(O)(O)C(F)(F)F)Nc1nc2ccc(Br)cc2o1`, the IC50 was 12.1 µM.

With `O=C(CCCCCCC(O)C(F)(F)F)Nc1ccccc1` (centres undefined), the IC50 was above 40 µM.

Take `O=C(CCCCCNC(=O)c1cc(=O)c(O)co1)Nc1ccccc1`: the IC50 was above 100 µM.

For the compound `COc1ccc2nc(NC(=O)CCCCCCNC(=O)C(O)(O)C(F)(F)F)sc2c1`, the IC50 stood at 7.56 µM.

In the case of `OC(O)(c1c(F)c(F)c(-n2cc(-c3ccccc3)nn2)c(F)c1F)C(F)(F)F`, the IC50 is above 100 µM.

Regarding `O=C(CCCCCCNC(=O)c1cc(=O)c(O)co1)Nc1ccccc1`, the IC50 was above 100 µM.

Turning to `NC(=O)C(=O)NCCCCCCCC(=O)Nc1ccccc1`, the IC50 was above 100 µM.

In the case of `COc1ccccc1NC(=O)CCCCCCNC(=O)C(O)(O)C(F)(F)F`, the IC50 was 10.1 µM.

As to `O=C(CCCCCCNC(=O)C(O)(O)C(F)(F)F)Nc1ccc(C(=O)c2ccccc2)cc1`, the IC50 is above 40 µM.

As for `O=C(CCCCCCNC(=O)C(O)(O)C(F)(F)F)Nc1c(F)cc(F)cc1F`, the IC50 is 22.2 µM.

Consider `Cc1nc(NC(=O)CCCCCCNC(=O)C(O)(O)C(F)(F)F)sc1-c1ccccc1`, for which the IC50 is 10.1 µM.

As for `CC(=O)C(=O)NCCCCC(=O)Nc1ccccc1`, the IC50 is above 100 µM.

Turning to `O=C(CCCCCCNC(=O)C(O)(O)C(F)(F)F)Nc1ccc(F)cc1F`, the IC50 came to 18.5 µM.

In the case of `O=C(CCCCCCNC(=O)C(O)(O)C(F)(F)F)Nc1nc2ccc(Br)cc2s1`, the IC50 is 10.3 µM.

As for `O=C(CCCNC(=O)C(O)(O)C(F)(F)F)Nc1ccccc1`, the IC50 is 34.8 µM.

With `C/C(=N\O)C(=O)NCCCCC(=O)Nc1ccccc1`, the IC50 was above 100 µM.

Regarding `O=C(CCCCCCCNC(=O)c1cc(=O)c(O)co1)Nc1ccccc1`, the IC50 is above 100 µM.

For `Cc1ccc(S(=O)(=O)Nc2ccc(NC(=O)CCCCCCNC(=O)C(O)(O)C(F)(F)F)cc2)cc1`, the IC50 stood at 17.2 µM.

On to `OC(c1c(F)c(F)c(-n2cc(-c3ccccc3)nn2)c(F)c1F)C(F)(F)F` (centres undefined), for which the IC50 was above 100 µM.

On to `CC(=O)c1ccc(NC(=O)CCCCCCNC(=O)C(O)(O)C(F)(F)F)cc1`, for which the IC50 turned out to be 12.1 µM.

On to `O=C(CCCCCCNC(=O)C(O)(O)C(F)(F)F)Nc1ccccc1Br`, for which the IC50 was 14.5 µM.

Turning to `O=C(CCCCCCNC(=O)C(O)(O)C(F)(F)F)Nc1nc(-c2ccccc2)c(-c2ccccc2)s1`, the IC50 stood at 29.9 µM.

As for `O=C(CCCCCCNC(=O)C(O)(O)C(F)(F)F)Nc1nc2ccc(Cl)cc2s1`, the IC50 is 11 µM.

For the compound `COc1cc(NC(=O)CCCCCCNC(=O)C(O)(O)C(F)(F)F)cc(OC)c1OC`, the IC50 turned out to be 14.1 µM.

For the compound `CC(=O)C(=O)NCCCCCC(=O)Nc1ccccc1`, the IC50 is above 100 µM.

`O=C(CCCCCNC(=O)c1ccc[nH]1)Nc1ccccc1`: the IC50 is above 100 µM.

As to `CCOc1ccc(-c2cnc(NC(=O)CCCCCCNC(=O)C(O)(O)C(F)(F)F)s2)cc1`, the IC50 amounted to 4.05 µM.

For the compound `O=C(CCCCCCNC(=O)C(O)(O)C(F)(F)F)Nc1nc2ccccc2o1`, the IC50 stood at 3.45 µM.

With `O=C(CCCCCCNC(=O)C(O)(O)C(F)(F)F)Nc1cccc2ccccc12`, the IC50 is 6.48 µM.
